Source: the OPERA property sets (Mansouri et al. 2018)

| logP | SMILES |
| --- | --- |
| -2.03 | CN(C=O)c1c(N)[nH]c(=O)n(C)c1=O |
| -0.64 | Cn1c(N)c(NC=O)c(=O)n(C)c1=O |
| -0.27 | Cn1c(=O)[nH]c2nc[nH]c2c1=O |
| -0.22 | Cn1c(=O)[nH]c2[nH]c(=O)n(C)c2c1=O |
| -0.57 | Cn1c(=O)[nH]c2[nH]c(=O)[nH]c2c1=O |
| -1.18 | Cn1c(=O)[nH]c2[nH]c(=O)[nH]c(=O)c21 |
| -1.3 | CN(C=O)c1c(N)n(C)c(=O)[nH]c1=O |
| -1.08 | Cn1c(=O)[nH]c(=O)c2[nH]c(=O)[nH]c21 |
| -1.33 | Cn1c(=O)[nH]c(=O)c2c1[nH]c(=O)n2C |
| -1.32 | CN(C=O)c1c(N)n(C)c(=O)n(C)c1=O |
| -0.37 | Cn1c(=O)c2c([nH]c(=O)n2C)n(C)c1=O |
| -0.52 | Cn1c(=O)c2[nH]c(=O)[nH]c2n(C)c1=O |
| -0.89 | Cn1cnc2[nH]c(=O)[nH]c(=O)c21 |

| SMILES | logP |
| --- | --- |
| Cn1c(=O)[nH]c(=O)c2[nH]cnc21 | -0.5 |
